Measurements published in ChEMBL document CHEMBL1201862, “PubChem BioAssay data set” (2004).
The source made the active and inactive calls.

What was measured:
[1] = LGR2 antagonists, dose response, cell-based, HEK293, CRE-luciferase reporter, cherry pick, set 2 (AID 743343); type: functional;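 note: transfected cells were stimulated with diluted bursicon conditioned medium after compound addition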
[2] = MC4R antagonists, dose response, counter-screen for LGR2 antagonist project, cell-based, plate reader, cherry pick (AID 743444); type: functional;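 note: transfected HEK 293 cells stimulated with alpha-MSH peptide; potency of inhibitors of the alpha-MSH evoked signal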
[3] = HepG2 cell cytotoxicity, dose response, cytotoxicity control, plate reader, cherry-pick, antagonist series (AID 743416); type: functional, cell-based
[4] = HEK293 cell cytotoxicity, dose response, cytotoxicity control, plate reader, cherry-picked samples (AID 743446); type: functional, cell-based
[5] = A549 cell cytotoxicity, dose response, cytotoxicity control, plate reader, cherry-pick, antagonist series (AID 743412); type: functional, cell-based
[6] = target: Glyceraldehyde-3-phosphate dehydrogenase (Homo sapiens, UniProt P04406)
Bcl-2-related protein A1 [7] = target: T1, Bcl-2-related protein A1 (Mus musculus, UniProt Q07440); assay: Bfl-1 binding inhibitors, SAR follow-up, biochemical, fluorescence polarization (AID 1070)
T1 sequence (Q07440 whole entry): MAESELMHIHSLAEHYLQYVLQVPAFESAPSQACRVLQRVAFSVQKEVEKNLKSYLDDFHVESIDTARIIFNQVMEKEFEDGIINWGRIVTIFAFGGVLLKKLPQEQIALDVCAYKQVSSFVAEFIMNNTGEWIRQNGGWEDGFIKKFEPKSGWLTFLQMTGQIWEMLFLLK

Bcl-2-related protein A1 [8] = target: T1, Bcl-2-related protein A1; assay: Bfl-1 inhibitors blocking BH3 peptide binding, confirmation, biochemical, TR-FRET, mouse Bfl-1 (AID 621);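 note: TR-FRET binding of GST-Bfl-1 to FITC-labelled Bid peptide via terbium antibody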
[9] = target: T2, E3 ubiquitin-protein ligase XIAP (Homo sapiens, UniProt P98170); assay: XIAP antagonists, biochemical, IAP family, fluorescence polarization (AID 1018); type: functional
[10] = target: T2, E3 ubiquitin-protein ligase XIAP; assay: Counter Screen using XIAP-Bir3 for Chemical Antagonists of Bir1/2 domains of IAP-family anti-apoptotic proteins. [Related pubchem assays (depositor defined):AID1018, AID1449, AID1514, AID1638, AID1749, AID1750, AID488957, AID488963]
Protein Tat = target: T3, Protein Tat (Human immunodeficiency virus type 1 group M subtype B (isolate HXB2)(HIV-1), UniProt P04608); type: functional;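 note: tat binding to TAR RNA read out by fluorescence polarization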
T3 sequence (P04608 whole entry): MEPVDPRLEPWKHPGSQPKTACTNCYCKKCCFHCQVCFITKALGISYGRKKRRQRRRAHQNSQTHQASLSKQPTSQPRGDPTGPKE

Troponin, cardiac muscle = Troponin, cardiac muscle (Homo sapiens, UniProt P19429+P45379+P63316); assay: Fluorescence-based biochemical high throughput dose response assay for activators of the calcium sensitivity of cardiac Regulated Thin Filaments (RTF). [Related pubchem assays (depositor defined):AID493008, AID493018, AID504382, AID504383]; type: protein-complex assay
[11] = target: T4, RNA-binding protein pos-1 (Caenorhabditis elegans, UniProt G5EF15); assay: inhibitors of POS-1/mex-3 RNA binding, dose response, biochemical, fluorescence polarization (AID 1964);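 note: purified POS-1 fused to maltose binding protein made in E. coli; potency of compounds blocking POS-1 binding to fluorescent RNA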
T4 sequence (G5EF15 whole entry): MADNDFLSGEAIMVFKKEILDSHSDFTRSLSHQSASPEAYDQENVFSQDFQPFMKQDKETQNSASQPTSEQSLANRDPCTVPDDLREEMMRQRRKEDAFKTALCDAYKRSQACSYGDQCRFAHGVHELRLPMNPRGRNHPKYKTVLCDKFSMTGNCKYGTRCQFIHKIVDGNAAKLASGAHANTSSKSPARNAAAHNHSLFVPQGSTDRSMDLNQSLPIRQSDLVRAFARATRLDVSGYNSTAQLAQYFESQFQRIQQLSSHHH

[12] = target: Peroxisome proliferator-activated receptor gamma/Nuclear receptor coactivator 3 (Homo sapiens, UniProt P37231); type: functional;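 note: agonist potency for raising coactivator recruitment to the receptor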
H4 = assay: Luminescence Cell-Based Dose Response HTS to Identify Activators of 5'UTR Stem-Loop Driven Prion Protein mRNA Translation in H4 Neuroglioblastoma Cells. [Related pubchem assays: 1829 (Project Summary), 1814 (Primary HTS)]; type: functional; details: Homo sapiens
[13] = target: Peroxisome proliferator-activated receptor gamma/Nuclear receptor coactivator 1 (Homo sapiens, UniProt P37231); type: functional;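 note: agonist potency as compounds enhance coactivator SRC-1 recruitment to PPARgamma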
[14] = target: T5, Zinc finger protein mex-5 (Caenorhabditis elegans, UniProt Q9XUB2); assay: MEX-5/TCR-2 RNA interaction inhibitors, dose response, biochemical, C. elegans, fluorescence polarization (AID 1960)
T5 sequence (Q9XUB2 whole entry): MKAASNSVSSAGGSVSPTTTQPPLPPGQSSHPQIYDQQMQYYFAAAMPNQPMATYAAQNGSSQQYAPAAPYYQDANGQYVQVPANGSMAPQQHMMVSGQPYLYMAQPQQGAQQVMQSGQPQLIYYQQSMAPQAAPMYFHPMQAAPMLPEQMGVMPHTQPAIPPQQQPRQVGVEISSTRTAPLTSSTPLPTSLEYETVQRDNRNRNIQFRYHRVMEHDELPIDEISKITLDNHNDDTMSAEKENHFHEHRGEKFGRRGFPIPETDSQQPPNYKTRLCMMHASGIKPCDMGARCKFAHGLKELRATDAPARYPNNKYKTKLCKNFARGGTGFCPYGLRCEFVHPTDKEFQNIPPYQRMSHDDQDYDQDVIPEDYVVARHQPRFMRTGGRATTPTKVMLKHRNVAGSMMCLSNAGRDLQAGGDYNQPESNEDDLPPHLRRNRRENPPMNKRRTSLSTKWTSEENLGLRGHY

[15] = target: Peroxisome proliferator-activated receptor gamma/Nuclear receptor coactivator 2 (Homo sapiens, UniProt P37231); type: functional;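 note: agonist potency for raising coactivator recruitment to the receptor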
Cytochrome P450 3A4 = Cytochrome P450 3A4 (Homo sapiens, UniProt P08684); details: Potency;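 note: confirmatory qHTS run detecting inhibitors and substrates of CYP3A4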
Estrogen receptor beta = Estrogen receptor beta (Homo sapiens, UniProt Q92731); assay: ERβ–SRC-3 coactivator interaction inhibitors, confirmation, orthogonal assay, biochemical, ELISA, streptavidin-HRP readout (AID 1060)

T2 sequence (P98170 whole entry): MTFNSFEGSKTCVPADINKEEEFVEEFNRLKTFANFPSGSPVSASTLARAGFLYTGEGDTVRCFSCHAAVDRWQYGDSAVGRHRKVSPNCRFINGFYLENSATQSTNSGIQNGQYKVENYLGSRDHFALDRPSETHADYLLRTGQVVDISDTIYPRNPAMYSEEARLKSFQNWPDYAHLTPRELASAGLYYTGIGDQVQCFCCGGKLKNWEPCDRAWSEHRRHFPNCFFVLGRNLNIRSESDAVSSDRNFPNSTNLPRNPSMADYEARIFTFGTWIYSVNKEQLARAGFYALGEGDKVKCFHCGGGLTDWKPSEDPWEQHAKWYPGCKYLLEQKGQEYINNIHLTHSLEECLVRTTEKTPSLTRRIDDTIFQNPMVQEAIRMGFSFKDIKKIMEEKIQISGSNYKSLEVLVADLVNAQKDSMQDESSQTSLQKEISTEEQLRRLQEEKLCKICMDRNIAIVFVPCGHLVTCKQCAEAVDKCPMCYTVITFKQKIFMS
Sequence of Peroxisome proliferator-activated receptor gamma/Nuclear receptor coactivator 2 (P37231 whole entry): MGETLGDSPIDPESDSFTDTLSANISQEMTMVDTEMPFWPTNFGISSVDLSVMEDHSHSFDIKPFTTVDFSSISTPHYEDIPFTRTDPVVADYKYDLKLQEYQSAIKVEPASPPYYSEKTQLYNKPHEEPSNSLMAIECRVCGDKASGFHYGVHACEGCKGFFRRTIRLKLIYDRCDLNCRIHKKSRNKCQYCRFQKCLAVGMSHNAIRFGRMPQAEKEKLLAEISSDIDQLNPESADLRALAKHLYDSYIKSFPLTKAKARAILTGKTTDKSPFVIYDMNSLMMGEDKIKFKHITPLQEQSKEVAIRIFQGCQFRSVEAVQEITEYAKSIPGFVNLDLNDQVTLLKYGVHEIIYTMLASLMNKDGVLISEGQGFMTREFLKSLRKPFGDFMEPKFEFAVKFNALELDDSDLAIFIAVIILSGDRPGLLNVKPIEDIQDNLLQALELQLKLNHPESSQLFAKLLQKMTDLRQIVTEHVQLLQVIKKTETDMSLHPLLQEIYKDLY
Sequence of Peroxisome proliferator-activated receptor gamma/Nuclear receptor coactivator 2 (Q15596 whole entry, further chain): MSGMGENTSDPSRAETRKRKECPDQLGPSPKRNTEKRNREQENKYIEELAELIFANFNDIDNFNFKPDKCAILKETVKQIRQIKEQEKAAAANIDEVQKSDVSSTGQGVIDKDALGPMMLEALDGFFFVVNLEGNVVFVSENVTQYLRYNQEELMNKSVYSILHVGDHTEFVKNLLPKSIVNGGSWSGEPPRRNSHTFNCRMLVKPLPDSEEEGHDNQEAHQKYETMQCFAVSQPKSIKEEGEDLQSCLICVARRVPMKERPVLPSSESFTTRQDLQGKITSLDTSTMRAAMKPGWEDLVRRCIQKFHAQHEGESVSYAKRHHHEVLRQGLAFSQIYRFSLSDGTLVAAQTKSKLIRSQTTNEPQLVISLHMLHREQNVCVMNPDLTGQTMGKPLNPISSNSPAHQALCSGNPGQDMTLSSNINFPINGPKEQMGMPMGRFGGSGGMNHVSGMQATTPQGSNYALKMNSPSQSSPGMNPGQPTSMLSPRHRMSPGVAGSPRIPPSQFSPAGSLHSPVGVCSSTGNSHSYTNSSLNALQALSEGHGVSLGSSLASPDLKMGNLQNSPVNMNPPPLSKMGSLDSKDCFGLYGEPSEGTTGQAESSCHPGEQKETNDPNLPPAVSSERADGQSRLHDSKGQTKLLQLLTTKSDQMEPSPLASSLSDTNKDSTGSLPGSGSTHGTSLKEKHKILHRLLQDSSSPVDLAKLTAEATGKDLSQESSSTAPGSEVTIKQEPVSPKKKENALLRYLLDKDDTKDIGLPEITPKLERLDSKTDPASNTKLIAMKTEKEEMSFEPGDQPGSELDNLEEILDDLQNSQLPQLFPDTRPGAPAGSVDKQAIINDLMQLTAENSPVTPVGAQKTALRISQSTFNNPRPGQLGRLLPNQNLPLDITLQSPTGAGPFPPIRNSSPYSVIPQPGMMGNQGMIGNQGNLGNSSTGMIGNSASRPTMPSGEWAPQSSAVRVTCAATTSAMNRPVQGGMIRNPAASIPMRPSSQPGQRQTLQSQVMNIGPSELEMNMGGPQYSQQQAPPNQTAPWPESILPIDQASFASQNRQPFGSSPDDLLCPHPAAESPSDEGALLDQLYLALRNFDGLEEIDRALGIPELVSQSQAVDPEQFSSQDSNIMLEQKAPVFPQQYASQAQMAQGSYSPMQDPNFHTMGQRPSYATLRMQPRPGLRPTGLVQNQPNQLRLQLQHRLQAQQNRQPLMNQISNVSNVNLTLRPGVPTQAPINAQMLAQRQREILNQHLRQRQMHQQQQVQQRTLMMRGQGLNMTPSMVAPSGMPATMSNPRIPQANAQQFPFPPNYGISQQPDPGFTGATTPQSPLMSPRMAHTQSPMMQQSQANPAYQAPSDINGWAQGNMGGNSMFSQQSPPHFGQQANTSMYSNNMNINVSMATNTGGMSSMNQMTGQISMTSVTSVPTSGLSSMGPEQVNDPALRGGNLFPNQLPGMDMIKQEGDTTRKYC
Sequence of Peroxisome proliferator-activated receptor gamma/Nuclear receptor coactivator 1 (P37231 whole entry): as the sequence (P37231 whole entry) above
Sequence of Peroxisome proliferator-activated receptor gamma/Nuclear receptor coactivator 1 (Q15788 whole entry, further chain): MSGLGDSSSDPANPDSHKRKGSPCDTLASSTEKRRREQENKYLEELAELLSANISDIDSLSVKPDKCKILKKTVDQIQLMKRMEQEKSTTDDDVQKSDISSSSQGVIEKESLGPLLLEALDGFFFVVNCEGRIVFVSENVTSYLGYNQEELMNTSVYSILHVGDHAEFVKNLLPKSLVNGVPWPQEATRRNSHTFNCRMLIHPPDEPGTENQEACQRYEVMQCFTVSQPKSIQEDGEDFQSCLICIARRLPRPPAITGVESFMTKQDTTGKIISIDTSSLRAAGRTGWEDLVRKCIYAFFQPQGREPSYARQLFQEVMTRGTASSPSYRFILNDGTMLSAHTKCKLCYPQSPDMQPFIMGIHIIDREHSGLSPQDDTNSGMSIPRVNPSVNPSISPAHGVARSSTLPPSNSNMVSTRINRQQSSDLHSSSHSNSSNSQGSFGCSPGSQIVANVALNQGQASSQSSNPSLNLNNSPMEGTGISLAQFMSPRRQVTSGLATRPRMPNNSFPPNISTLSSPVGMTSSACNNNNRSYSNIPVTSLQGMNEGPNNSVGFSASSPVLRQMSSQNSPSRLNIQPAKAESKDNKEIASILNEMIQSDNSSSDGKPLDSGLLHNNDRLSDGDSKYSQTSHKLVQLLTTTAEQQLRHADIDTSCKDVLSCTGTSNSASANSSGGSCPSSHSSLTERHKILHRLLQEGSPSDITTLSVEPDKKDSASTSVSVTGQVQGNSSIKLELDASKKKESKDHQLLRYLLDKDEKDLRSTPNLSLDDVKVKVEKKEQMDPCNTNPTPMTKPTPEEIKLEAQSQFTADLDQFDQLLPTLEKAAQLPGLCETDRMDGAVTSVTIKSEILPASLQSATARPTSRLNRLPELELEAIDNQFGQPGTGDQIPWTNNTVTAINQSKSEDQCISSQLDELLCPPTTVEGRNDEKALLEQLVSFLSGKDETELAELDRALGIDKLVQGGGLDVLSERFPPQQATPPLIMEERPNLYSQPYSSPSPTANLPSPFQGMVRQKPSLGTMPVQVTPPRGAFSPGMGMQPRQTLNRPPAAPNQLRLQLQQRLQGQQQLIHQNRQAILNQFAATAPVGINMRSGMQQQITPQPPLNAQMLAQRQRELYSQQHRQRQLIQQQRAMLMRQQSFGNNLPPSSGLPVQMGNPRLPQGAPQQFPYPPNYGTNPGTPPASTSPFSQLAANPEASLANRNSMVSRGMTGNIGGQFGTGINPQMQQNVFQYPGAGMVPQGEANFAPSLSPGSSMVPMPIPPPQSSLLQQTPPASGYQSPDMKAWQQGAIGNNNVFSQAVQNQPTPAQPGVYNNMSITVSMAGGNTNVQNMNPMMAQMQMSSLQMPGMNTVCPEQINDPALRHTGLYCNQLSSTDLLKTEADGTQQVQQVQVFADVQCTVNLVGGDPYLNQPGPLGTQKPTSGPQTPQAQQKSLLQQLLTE
Sequence of Cytochrome P450 3A4 (P08684 whole entry): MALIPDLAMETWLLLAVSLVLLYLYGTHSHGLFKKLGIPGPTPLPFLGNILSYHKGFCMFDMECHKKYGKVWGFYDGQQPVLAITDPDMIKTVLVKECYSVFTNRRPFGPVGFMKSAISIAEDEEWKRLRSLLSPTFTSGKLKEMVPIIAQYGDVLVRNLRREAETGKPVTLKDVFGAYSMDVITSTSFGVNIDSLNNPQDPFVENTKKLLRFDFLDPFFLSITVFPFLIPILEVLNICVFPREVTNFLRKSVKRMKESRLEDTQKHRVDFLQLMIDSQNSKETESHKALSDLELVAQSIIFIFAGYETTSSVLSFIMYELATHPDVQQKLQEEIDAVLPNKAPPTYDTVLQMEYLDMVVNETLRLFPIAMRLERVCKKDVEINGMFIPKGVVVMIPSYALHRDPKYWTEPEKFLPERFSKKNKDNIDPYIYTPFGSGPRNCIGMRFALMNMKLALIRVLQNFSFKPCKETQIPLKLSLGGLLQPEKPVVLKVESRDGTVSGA

O=C(Nc1ccccc1)c1cc(C2CCCN(C(=O)C3CC3)C2)on1 (stereo not given)
AC50 [1]: 7.27 µM (active) | AC50 [2]: 4.34 µM (active) | AC50 [3]: > 52 µM (inactive) | AC50 [4]: 46.4 µM (active) | AC50 [5]: 49.2 µM (active)

O=C1C(Cl)=C(N2CCN(CCOCCO)CC2)C(=O)N1c1ccc([N+](=O)[O-])cc1
IC50 [6]: > 100 µM (not active) | IC50 (Bcl-2-related protein A1 [7]): 2.59 µM (active) | IC50 (Bcl-2-related protein A1 [8]): 3.51 µM (active)

O=C1C(Cl)=C(N2CCN(c3ccc(Cl)cc3)CC2)C(=O)N1c1ccc(Cl)c(Cl)c1
IC50 [6]: > 100 µM (not active) | IC50 (Bcl-2-related protein A1 [7]): > 100 µM (not active) | IC50 (Bcl-2-related protein A1 [8]): > 100 µM (not active)

O=C(NCc1ccc(Cl)cc1)c1ccc2[nH]cnc2c1
IC50 [9]: > 100 µM (not active) | IC50 [10]: > 100 µM (inactive)

COc1ccc(/N=C2/S/C(=C\c3ccc(C)o3)C(=O)N2CC(C)C)cc1
IC50 (Protein Tat): > 100 µM (active)

COCOC1CCC2C3CCC4=CC(=O)CCC4=C3C=CC12C (stereo not given)
IC50 (Protein Tat): > 100 µM (active)

CCOc1ccc2ccccc2c1CNCCN1CCOCC1
EC50 (Troponin, cardiac muscle): > 71.5 µM (inactive)

O=C(Cc1nc2ccccc2nc1O)c1ccccc1
EC50 [11]: 42.5 µM (inconclusive) | EC50 [12]: > 79.4 µM (not active) | EC50 (H4): 0.419 µM (active) | EC50 [13]: > 79.4 µM (not active) | EC50 [14]: > 300 µM (inconclusive) | EC50 [15]: > 79.4 µM (not active)

S=C(NC1CCCCC1)NC1CCCCC1
AC50 (Cytochrome P450 3A4): 25.1 µM (inconclusive)

COC(=O)c1ccc(NC(=O)CSc2nc(C)cc(=O)[nH]2)cc1
IC50 (Estrogen receptor beta): > 50 µM (not active)

CC(C)CC1(C(=O)O)NC(c2ccccc2O)C2C(=O)N(C(C)C)C(=O)C21 (stereo not given)
IC50 [9]: > 100 µM (not active) | IC50 [10]: > 100 µM (inactive)

O=C(Nc1cccc(NS(=O)(=O)c2ccc(S(=O)(=O)NC3CC3)cc2)c1)c1ccccn1
EC50 [12]: > 79.4 µM (not active) | EC50 [13]: > 79.4 µM (not active) | EC50 [15]: > 79.4 µM (not active)

Cc1nc(NC2CCCCC2)c2nc(-c3ccccc3)n(CCN3CCCC3)c2n1
AC50 (Cytochrome P450 3A4): 25.1 µM (inconclusive)
